From publication PMC7041945, “Misfolded proteins bind and activate death receptor 5 to trigger apoptosis during unresolved endoplasmic reticulum stress” (eLife, 2020)
No end group written: not given here.

What was measured:
DR5L ECD [1] = target: T1, DR5L ECD (Homo sapiens, UniProt O14763); test: Fluorescence quenching of AlexaFluor647-DR5L ECD; assay type: binding
T1 construct: Gp67 (glycoprotein) signal peptide (N); made in house; host or cells: SF21 insect cells (baculovirus, Bac-to-Bac)
Description: The pFastBac HTB constructs were recombined into bacmid DNA using the Bac-to-Bac baculovirus expression system according to manufacturer’s protocols (Life Technologies).
Recombinant DR5 and TNFR1 ECD were labeled with AlexaFluor647 NHS Ester (Succinimidyl Ester) (Life Technologies # A37573) in a 3:1 dye:protein molar ratio in 30 mM HEPES pH 7.2, 150 mM NaCl, 1% DMF overnight at 4°C protected from light. The labeled proteins were re-loaded onto a SuperDex200 10/300 GL column to remove the excess dye, yielding labeling efficiencies of 59% and 49% for DR5 ECD and TNFR1 ECD, respectively. […]
To set up reactions, the unlabeled peptide titration (10 μl each) was made from a two-fold dilution series of the highest peptide concentration assayed. […] Samples were incubated for 30 min at RT protected from light before measuring fluorescence.
Samples were then loaded by capillary action onto premium capillaries (Nanotemper Technologies, cat. #MO-K025). Fluorescence was measured on a Monolith NT.115 Instrument (NanoTemper Technologies, Germany) using the capillary scan function at 25°C.
The half-maximum binding constant (K1/2) and Hill coefficient were determined by fitting the data points on Prism 6.0 to the model equation: Y = Bmax*X^h/(K1/2^h + X^h), where Y is the % quenching, X is the concentration of peptide, Bmax is the maximum % quenching, and h is the Hill slope.

DR5L ECD [2] = target: T1, DR5L ECD; test: Size exclusion chromatography of DR5 ECD and peptide complex; assay type: biochemical; conditions: 25 μM DR5L ECD; 100 μM fluorescein-conjugated peptide; overnight 4°C
Description: The specified concentration of protein and peptide were incubated overnight at 4°C. The following day, 200 ul of each sample was loaded onto a SuperDex200 10/300 GL column equilibrated with 30 mM HEPES pH 7.2, 150 mM NaCl at a flow rate of 0.5 ml/min. Fractions were collected in 1 ml aliquots.
For subsequent analysis of each fraction by SDS-PAGE, 1 ml fractions were concentrated to 50 μl using a 3 kDa MW cutoff and loaded onto a gel. The fluorescein-labeled peptide was visualized using the fluorescence detection mode on a Typhoon 9400 Variable Mode Imager (GE Healthcare). Protein was visualized by staining with Coomassie.

T1 sequence (O14763 72-213): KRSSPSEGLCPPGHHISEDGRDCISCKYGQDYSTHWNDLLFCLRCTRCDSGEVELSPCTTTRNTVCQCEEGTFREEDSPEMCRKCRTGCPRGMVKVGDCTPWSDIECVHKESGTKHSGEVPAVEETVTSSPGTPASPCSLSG

Row | Kd (DR5L ECD [1]; AlexaFluor647-DR5L ECD 200 nM, 20 mM HEPES pH 7.2, 100 mM KOAc, 0.1% Tween-20, 30 min RT, read at 25°C, N = 3, ± SD, read-out: K1/2 (half-maximum binding constant, apparent binding affinity)) [µM] | fluorescence quenching of AlexaFluor647-DR5L ECD (DR5L ECD [1]; increasing peptide, 200 nM ECD, N = 3) | Sequence | co-elution / oligomerization of DR5 ECD by size exclusion (DR5L ECD [2])
1 | 109 ± 11 | – | FTWRYQPEGGRDAISIFHYA [MPZ-ecto] | –
2 | – | quenching was not observed | FTWREQPEGGRDAISIFHEA [MPZ-ecto^Tyr→Glu] | did not co-migrate with or induce the oligomerization of DR5 ECD
